Experimental data as given in ChEMBL document CHEMBL4513161, “CO-ADD screening of MMV (CH) - Pandemic Response Box” (2021).
Converted amounts (≈) assume the structure as drawn. Counter-ions that a name gives are not always drawn.

How the values were obtained:
HEK293 = assay: cells; format: functional, Homo sapiens, ATCC CRL1573; conditions: Homo sapiens, ATCC CRL1573, HEK293; ASSAY_TEST Inhibition of Cell Viability; detection method Resazurin; Fluorescence (ex560/em590); MEDIA DMEM with 10% FBS; plate type 384well; TC; CORNING #3712; time 18 hr; read-out: CC50
Pseudomonas aeruginosa [1] = assay: Antibacterial activity against Pseudomonas aeruginosa PAO397 [PAO1 d(mexAB-oprM) d(mexCD-oprJ) d(mexEF-oprN) d(mexJKL) d(mexXY) d(opmH)] (CO-ADD:GN_211); MIC in CAMBH media using NBS plates, by OD(600); format: functional; conditions: ASSAY_TEST Inhibition of Bacterial Growth, detection method Absorption (OD600), MEDIA CAMHB, plate type 384well, CORNING #3640, time 18 hr
Staphylococcus aureus = assay: microbe, parasite or virus in culture; conditions: ATCC 43300, 18 h, ASSAY_TEST Inhibition of Bacterial Growth, detection method Absorption (OD600), MEDIA CAMHB, plate type 384well, NBS, CORNING #3640
Description: Antibacterial activity against Staphylococcus aureus MRSA ATCC 43300 (CO-ADD:GP_020); MIC in CAMBH media, using NBS plates, by OD(600)

Escherichia coli = assay: microbe, parasite or virus in culture; conditions: ATCC 25922, 18 h, ASSAY_TEST Inhibition of Bacterial Growth, detection method Absorption (OD600), MEDIA CAMHB, plate type 384well, NBS, CORNING #3640
Description: Antibacterial activity against Escherichia coli ATCC 25922 (CO-ADD:GN_001); MIC in CAMBH media using NBS plates, by OD(600)

Klebsiella pneumoniae = assay: microbe, parasite or virus in culture; conditions: ATCC 700603, 18 h, ASSAY_TEST Inhibition of Bacterial Growth, detection method Absorption (OD600), MEDIA CAMHB, plate type 384well, NBS, CORNING #3640
Description: Antibacterial activity against Klebsiella pneumoniae MDR ATCC 70063 (CO-ADD:GN_003); MIC in CAMBH media using NBS plates, by OD(600)

Pseudomonas aeruginosa [2] = assay: microbe, parasite or virus in culture; conditions: ATCC 27853, 18 h, ASSAY_TEST Inhibition of Bacterial Growth, detection method Absorption (OD600), MEDIA CAMHB, plate type 384well, NBS, CORNING #3640
Description: Antibacterial activity against Pseudomonas aeruginosa ATCC 27853 (CO-ADD:GN_042); MIC in CAMBH media using NBS plates, by OD(600)

Acinetobacter baumannii = assay: microbe, parasite or virus in culture; conditions: ATCC 19606, 18 h, ASSAY_TEST Inhibition of Bacterial Growth, detection method Absorption (OD600), MEDIA CAMHB, plate type 384well, NBS, CORNING #3640
Description: Antibacterial activity against Acinetobacter baumannii ATCC 19606 (CO-ADD:GN_034); MIC in CAMBH media using NBS plates, by OD600

Candida albicans = assay: microbe, parasite or virus in culture; conditions: ATCC 90028, ASSAY_TEST Inhibition of Fungal Growth, detection method Absorption (OD530), plate type 384well, NBS, CORNING #3640
Description: Antifungal activity against Candida albicans ATCC 90028 (CO-ADD:FG_001); MIC in YNB media using NBS plates, by OD630

Description for Cryptococcus neoformans: Antifungal activity against Cryptococcus neoformans H99 ATCC 208821 (CO-ADD:FG_002); MIC in YNB media using NBS plates, by Resazurin OD(600-570)

| MIC (Pseudomonas aeruginosa [1]) [µM] | MIC (Cryptococcus neoformans) [µM] | MIC (Staphylococcus aureus) [µM] | MIC (Escherichia coli) [µM] | MIC (Klebsiella pneumoniae) [µM] | MIC (Pseudomonas aeruginosa [2]) [µM] | MIC (Acinetobacter baumannii) [µM] | MIC (Candida albicans) [µM] | Compound | CC50 (HEK293) [µM] |
| --- | --- | --- | --- | --- | --- | --- | --- | --- | --- |
| > 20 | 5 (≈ 1.04 µg/mL) | > 20 | > 20 | > 20 | > 20 | > 20 | 5 (≈ 1.04 µg/mL) | Cc1cc(C2CCCCC2)n(O)c(=O)c1 [CICLOPIROX] | 3.98 |
| > 20 | > 20 | 0.625 (≈ 0.213 µg/mL) | > 20 | > 20 | > 20 | > 20 | > 20 | Cc1c(N)cccc1Cn1ccc(OCCc2cccs2)cc1=O [CG-400549] | > 20 |
| > 20 | > 20 | > 20 | > 20 | > 20 | > 20 | > 20 | > 20 | O=C(NC(=O)N1CCCc2ccccc21)c1cccc(Cl)c1 | > 20 |
| > 20 | > 20 | > 20 | > 20 | > 20 | > 20 | > 20 | > 20 | CCCCc1ccc(-c2nc(C)c(C(=O)OC)s2)cc1 | > 20 |
| > 20 | > 20 | > 20 | > 20 | > 20 | > 20 | > 20 | > 20 | O=S(=O)(Nc1ccccc1)c1ccc(NC(=S)Nc2ccccc2)cc1 | > 20 |
| > 20 | > 20 | > 20 | > 20 | > 20 | > 20 | > 20 | > 20 | Cc1[nH]c2ccccc2c1CCNCc1ccc(/C=C/C(=O)NO)cc1 [PANOBINOSTAT] | > 20 |
| > 20 | > 20 | > 20 | > 20 | > 20 | > 20 | > 20 | > 20 | CC(C)n1cnc2c(NCc3ccccc3)nc(NCc3ccccc3)nc21 | > 20 |
| 2.5 (≈ 0.593 µg/mL) | > 20 | 20 (≈ 4.74 µg/mL) | 2.5 (≈ 0.593 µg/mL) | 2.5 (≈ 0.593 µg/mL) | 5 (≈ 1.19 µg/mL) | 5 (≈ 1.19 µg/mL) | > 20 | NC[C@H]1OB(O)c2c(OCCCO)cccc21 | > 20 |
| > 20 | > 20 | > 20 | > 20 | > 20 | > 20 | > 20 | > 20 | O=C(Nc1ncc(Cc2cccc3ccccc23)s1)C1CCCCC1 | > 20 |
| > 20 | > 20 | > 20 | > 20 | > 20 | > 20 | > 20 | > 20 | O=C(NNC(=S)Nc1ccc(Cl)cc1)c1ccncc1 | > 20 |
| > 20 | > 20 | > 20 | > 20 | > 20 | > 20 | > 20 | > 20 | COc1ccc2cc3[n+](cc2c1OCCN(CCn1cncn1)Cc1ccc(F)cc1F)CCc1cc2c(cc1-3)OCO2 | > 20 |
| > 20 | > 20 | > 20 | > 20 | > 20 | > 20 | > 20 | > 20 | COc1cc(C(C(=O)NC2CCCCC2)N(C(=O)Cc2c[nH]c3ccccc23)c2ccc(C(C)C)cc2)cc(OC)c1OC (configuration not stated) | > 20 |
| > 20 | > 20 | > 20 | > 20 | > 20 | > 20 | > 20 | > 20 | O=C(CCc1ccc2c(c1)OCO2)NCc1ccc(-c2ccccc2F)cc1 | > 20 |
| > 20 | > 20 | > 20 | > 20 | > 20 | > 20 | > 20 | > 20 | O=C(O)C(Cc1c[nH]c2ccccc12)N1C(=O)c2ccccc2C1=O (configuration not stated) | > 20 |
| > 20 | > 20 | > 20 | > 20 | > 20 | > 20 | > 20 | > 20 | COc1cc(C2C3=C(CC(C)(C)CC3=O)Nc3ccccc3N2C(C)=O)ccc1OCc1ccccc1 (configuration not stated) | > 20 |
| > 20 | > 20 | > 20 | > 20 | > 20 | > 20 | > 20 | 2.5 (≈ 0.794 µg/mL) | CCC(C)(C)c1ccc(CC(C)CN2C[C@@H](C)O[C@@H](C)C2)cc1 (some centres not stated) | > 20 |
| 20 | > 20 | > 20 | > 20 | > 20 | > 20 | > 20 | > 20 | CCC[C@@H]1C[C@@H](C(=O)N[C@@H]([C@H]2O[C@H](SC)[C@H](O)[C@@H](O)[C@H]2O)[C@H](C)Cl)N(C)C1 [CLINDAMYCIN HYDROCHLORIDE] | > 20 |
| > 20 | > 20 | > 20 | > 20 | > 20 | > 20 | > 20 | > 20 | NC(=O)c1c(N)sc2c1CCCCC2 | > 20 |
| > 20 | > 20 | > 20 | > 20 | > 20 | > 20 | > 20 | > 20 | COC(=O)Nc1nc2cc([S+]([O-])c3ccccc3)ccc2[nH]1 (configuration not stated) [OXFENDAZOLE] | > 20 |
| > 20 | > 20 | > 20 | > 20 | > 20 | > 20 | > 20 | > 20 | OCCC#Cc1nc(-c2ccc(F)cc2)c(-c2ccncc2)n1CCCc1ccccc1 [RWJ-67657] | > 20 |
| > 20 | > 20 | > 20 | > 20 | > 20 | > 20 | > 20 | > 20 | O=[N+]([O-])c1cn(Cc2nc(O)nc(O)c2Br)cn1 | > 20 |
| > 20 | > 20 | > 20 | > 20 | > 20 | > 20 | > 20 | > 20 | O=C1[C@H](CC[C@H](O)c2ccc(F)cc2)[C@@H](c2ccc(O)cc2)N1c1ccc(F)cc1 [EZETIMIBE] | > 20 |
| > 20 | > 20 | > 20 | > 20 | > 20 | > 20 | > 20 | > 20 | Cc1nc(-c2ccc(C3N(C)c4ccc(F)cc4C(=O)N3c3ccccc3)s2)cs1 (configuration not stated) | > 20 |
| > 20 | > 20 | > 20 | > 20 | > 20 | > 20 | > 20 | > 20 | C/C(=N\NC(=O)C1CC1c1ccccc1)c1ccc(NC(=O)c2ccco2)cc1 (configuration not stated) | > 20 |
| > 20 | > 20 | > 20 | > 20 | > 20 | > 20 | > 20 | > 20 | COc1ccc(SCC(=O)N2c3ccccc3Sc3ccccc32)cc1 | > 20 |
| > 20 | > 20 | > 20 | > 20 | > 20 | > 20 | > 20 | > 20 | N[C@H]1CCC[C@H]1C(=O)O | > 20 |
| > 20 | > 20 | > 20 | > 20 | > 20 | > 20 | > 20 | > 20 | CC[C@@H]1C(=O)OC[C@@H]1Cc1cncn1C [PILOCARPINE HYDROCHLORIDE] | > 20 |

| Compound | MIC (Pseudomonas aeruginosa [1]) [µM] | MIC (Cryptococcus neoformans) [µM] | MIC (Staphylococcus aureus) [µM] | MIC (Escherichia coli) [µM] | MIC (Klebsiella pneumoniae) [µM] | MIC (Pseudomonas aeruginosa [2]) [µM] | MIC (Acinetobacter baumannii) [µM] | MIC (Candida albicans) [µM] | CC50 (HEK293) [µM] |
| --- | --- | --- | --- | --- | --- | --- | --- | --- | --- |
| CCCCc1ccc(C(=O)O)nc1 [FUSARIC ACID] | > 20 | > 20 | > 20 | > 20 | > 20 | > 20 | > 20 | > 20 | > 20 |
